This note sets out measurements from the supplement of paper PMC11061612.

The test system of experiment [1] is JVM-3 (B-Cell Non-Hodgkin's Lymphoma). Put plainly: combination Emax (second highest fraction inhibited in the dose matrix, 72 h); higher = more inhibition; extreme values may be limits of the assay. A digest of the protocol: (§1)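 Cell lines grown in DMEM/F12 or RPMI with 10% FBS were plated in 1536-well plates and held 24 hours at 37°C, 5% CO2 before 72 hours of exposure to two-drug dose matrices, with DMSO typically at 0.2%. CellTiter-Glo 2.0 luminescence gave viability, which was converted to inhibition. Vehicle wells were set to 0 and blank wells to 1. Combination Emax is the second-highest inhibition in the matrix, and Bliss excess is the observed combination effect minus the expected EA + EB − EA·EB, where EA and EB are the single-agent effects.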

Experiment [2] has the same test system. The experiment is described as follows: Bliss excess, mean over the matrix (fraction); higher = more synergy. The method in brief: as §1
The subject of experiment [3] is EW-24 (Ewing's Sarcoma). The experiment is described as above. The method in brief: as §1
Experiment [4] relates to RF-48 (B-Cell Non-Hodgkin's Lymphoma). Described as above. A digest of the protocol: as §1

As to `CN(C)CCCOc1ccc(-c2ccc3ncc4c(c3c2)n(C2CCOCC2)c(=O)n4C)cn1` [AZD0156] + C=CCn1c(=O)c2cnc(Nc3ccc(N4CCN(C)CC4)cc3)nc2n1-c1cccc(C(C)(C)O)n1 [AZD1775] (first compound max 1 µM, partner max 1 µM), in experiment [1], the “combination Emax” value was determined as 0.895. For the same molecule, the Bliss excess is -0.0347 in experiment [2], -0.0804 in experiment [3] and -0.0093 in experiment [4].
The corresponding values for `CN(C)CCCOc1ccc(-c2ccc3ncc4c(c3c2)n(C2CCOCC2)c(=O)n4C)cn1` [AZD0156] + CCN(CCO)CCCOc1ccc2c(Nc3cc(CC(=O)Nc4cccc(F)c4)[nH]n3)ncnc2c1 [AZD2811] (first compound max 1 µM, 7x7, partner max 1 µM) are 0.543, -0.0252, 0.0199 and 0.0084.
In the case of `CN(C)CCCOc1ccc(-c2ccc3ncc4c(c3c2)n(C2CCOCC2)c(=O)n4C)cn1` [AZD0156] + C[C@@H]1COCCN1C2=NC(=NC(=C2)C3(CC3)[S@](=N)(=O)C)C4=C5C=CNC5=NC=C4 [AZD6738] (first compound max 1 µM, 7x7, partner max 10 µM), the “combination Emax” value in experiment [1] was 0.783. Moreover, the Bliss excess in experiment [2] is -0.0183; in experiment [3], -0.0225; in experiment [4] it was 0.0487.
In the case of `CN(C)CCCOc1ccc(-c2ccc3ncc4c(c3c2)n(C2CCOCC2)c(=O)n4C)cn1` [AZD0156] + O=C(c1cc(Cc2n[nH]c(=O)c3ccccc23)ccc1F)N1CCN(C(=O)C2CC2)CC1 [Olaparib] (first compound max 3 µM, partner max 3 µM), the “combination Emax” value in experiment [1] turned out to be 0.684. In addition, the Bliss excess in experiment [2] was 0.234; in experiment [3] it was -0.0624; in experiment [4], 0.0064.
The corresponding values for `C=CCn1c(=O)c2cnc(Nc3ccc(N4CCN(C)CC4)cc3)nc2n1-c1cccc(C(C)(C)O)n1` [AZD1775] + C1CN(CCC1(C(=O)N[C@@H](CCO)C2=CC=C(C=C2)Cl)N)C3=NC=NC4=C3C=CN4 [Capivasertib] (first compound max 3 µM, partner max 3 µM) are 0.971, 0.0012, -0.0878 and -0.0989.
Take `C=CCn1c(=O)c2cnc(Nc3ccc(N4CCN(C)CC4)cc3)nc2n1-c1cccc(C(C)(C)O)n1` [AZD1775] + C[C@@H]1COCCN1C2=NC(=NC(=C2)C3(CC3)[S@](=N)(=O)C)C4=C5C=CNC5=NC=C4 [AZD6738] (first compound max 1 µM, partner max 10 µM): the “combination Emax” value in experiment [1] was found to be 0.876. For the same molecule, the Bliss excess in experiment [2] was -0.0178; in experiment [3] it was -0.0427; in experiment [4], -0.0098.
The matching figures for `C=CCn1c(=O)c2cnc(Nc3ccc(N4CCN(C)CC4)cc3)nc2n1-c1cccc(C(C)(C)O)n1` [AZD1775] + O=C(c1cc(Cc2n[nH]c(=O)c3ccccc23)ccc1F)N1CCN(C(=O)C2CC2)CC1 [Olaparib] (first compound max 1 µM, partner max 10 µM): 0.895, -0.109, -0.0708 and 0.0129.
The matching figures for `CCN(CCO)CCCOc1ccc2c(Nc3cc(CC(=O)Nc4cccc(F)c4)[nH]n3)ncnc2c1` [AZD2811] + C=CCn1c(=O)c2cnc(Nc3ccc(N4CCN(C)CC4)cc3)nc2n1-c1cccc(C(C)(C)O)n1 [AZD1775] (first compound max 1 µM, partner max 1 µM): 0.775, 0.0365, 0.0045 and 0.0041.
The matching figures for `CCN(CCO)CCCOc1ccc2c(Nc3cc(CC(=O)Nc4cccc(F)c4)[nH]n3)ncnc2c1` [AZD2811] + C[C@@H]1COCCN1C2=NC(=NC(=C2)C3(CC3)[S@](=N)(=O)C)C4=C5C=CNC5=NC=C4 [AZD6738] (first compound max 1 µM, 7x7, partner max 10 µM): 0.723, -0.0101, -0.104 and -0.0434.
Turning to `CCN(CCO)CCCOc1ccc2c(Nc3cc(CC(=O)Nc4cccc(F)c4)[nH]n3)ncnc2c1` [AZD2811] + O=C(c1cc(Cc2n[nH]c(=O)c3ccccc23)ccc1F)N1CCN(C(=O)C2CC2)CC1 [Olaparib] (first compound max 1 µM, 7x7, partner max 10 µM), the “combination Emax” value in experiment [1] came out at 0.45. Moreover, the Bliss excess was -0.0119 in experiment [2], 0.0173 in experiment [3] and 0.0181 in experiment [4].
The corresponding values for `CN(CCO)CC[C@H](CSc1ccccc1)Nc1ccc(S(=O)(=O)NC(=O)c2ccc(N3CCC([C@@H](O)c4ccccc4-c4ccc(Cl)cc4)CC3)cc2)cc1S(=O)(=O)C(F)(F)F` [AZD4320] + CN(C)CCCOc1ccc(-c2ccc3ncc4c(c3c2)n(C2CCOCC2)c(=O)n4C)cn1 [AZD0156] (first compound max 1 µM, 7x7, partner max 1 µM) are 0.92, 0.0006, -0.0096 and -0.0469.
The matching figures for `Cc1c2c(nn1C)CSCc1cc(n(C)n1)CSc1cc(c3ccccc3c1)OCCCc1c(C(=O)O)n(C)c3c-2c(Cl)ccc13` [AZD5991] + C1CN(CCC1(C(=O)N[C@@H](CCO)C2=CC=C(C=C2)Cl)N)C3=NC=NC4=C3C=CN4 [Capivasertib] (first compound max 1 µM, 7x7, partner max 3 µM): 0.544, -0.0363, 0.0392 and 0.0285.
`CS(=O)(=O)CCNCc1ccc(-c2ccc3ncnc(Nc4ccc(OCc5cccc(F)c5)c(Cl)c4)c3c2)o1` [Lapatinib] + NC1(c2ccc(-c3nc4ccn5c(=O)[nH]nc5c4cc3-c3ccccc3)cc2)CCC1 [MK-2206] (first compound max 10 µM, 7x7, partner max 10 µM): the Bliss excess was 0.0118 in experiment [3] and 0.0003 in experiment [4].
The matching figures for `O=C(c1cc(Cc2n[nH]c(=O)c3ccccc23)ccc1F)N1CCN(C(=O)C2CC2)CC1` [Olaparib] + CC1(C)CCC(CN2CCN(c3ccc(C(=O)NS(=O)(=O)c4ccc(NCC5CCOCC5)c([N+](=O)[O-])c4)c(Oc4cnc5[nH]ccc5c4)c3)CC2)=C(c2ccc(Cl)cc2)C1 [Venetoclax] (first compound max 10 µM, 7x7, partner max 1 µM): -0.0087 and 0.118.
The corresponding values for `O=C(c1cc(Cc2n[nH]c(=O)c3ccccc23)ccc1F)N1CCN(C(=O)C2CC2)CC1` [Olaparib] + CN(CC[C@H](CSC1=CC=CC=C1)NC2=C(C=C(C=C2)S(=O)(=O)NC(=O)C3=CC=C(C=C3)N4CCC(CC4)[C@H](C5=CC=CC=C5C6=CC=C(C=C6)Cl)O)S(=O)(=O)C(F)(F)F)CCO [AZD4320] (first compound max 10 µM, 7x7, partner max 1 µM) are 0.0097 and 0.0454.
The corresponding values for `O=C(c1cc(Cc2n[nH]c(=O)c3ccccc23)ccc1F)N1CCN(C(=O)C2CC2)CC1` [Olaparib] + COc1nnc2ccc(N3CCC(c4ccc(OCCN5CCN(C)C(=O)[C@H]5C)cc4)CC3)nn12 [AZD5153] (first compound max 10 µM, 7x7, partner max 1 µM) are -0.0469 and -0.0374.
On to `O=C(c1cc(Cc2n[nH]c(=O)c3ccccc23)ccc1F)N1CCN(C(=O)C2CC2)CC1` [Olaparib] + Cc1c2c(nn1C)CSCc1cc(n(C)n1)CSc1cc(c3ccccc3c1)OCCCc1c(C(=O)O)n(C)c3c-2c(Cl)ccc13 [AZD5991] (first compound max 10 µM, 7x7, partner max 1 µM), for which the results for the Bliss excess in experiment [3] and in experiment [4] were -0.0215 and -0.108, respectively.
The matching figures for `CC(=O)c1c(C)c2cnc(Nc3ccc(N4CCNCC4)cn3)nc2n(C2CCCC2)c1=O` [Palbociclib] + CC1(C)CCC(CN2CCN(c3ccc(C(=O)NS(=O)(=O)c4ccc(NCC5CCOCC5)c([N+](=O)[O-])c4)c(Oc4cnc5[nH]ccc5c4)c3)CC2)=C(c2ccc(Cl)cc2)C1 [Venetoclax] (first compound max 10 µM, 7x7, partner max 1 µM): 0.0021 and -0.112.
The corresponding values for `CC(=O)c1c(C)c2cnc(Nc3ccc(N4CCNCC4)cn3)nc2n(C2CCCC2)c1=O` [Palbociclib] + Cc1c2c(nn1C)CSCc1cc(n(C)n1)CSc1cc(c3ccccc3c1)OCCCc1c(C(=O)O)n(C)c3c-2c(Cl)ccc13 [AZD5991] (first compound max 10 µM, 7x7, partner max 1 µM) are -0.0178 and -0.0722.
The corresponding values for `CC(=O)c1c(C)c2cnc(Nc3ccc(N4CCNCC4)cn3)nc2n(C2CCCC2)c1=O` [Palbociclib] + Cn1cnc2c(F)c(Nc3ccc(Br)cc3Cl)c(C(=O)NOCCO)cc21 [Selumetinib] (first compound max 10 µM, 7x7, partner max 10 µM) are -0.0617 and -0.0489.
As to `Cn1cnc2c(F)c(Nc3ccc(Br)cc3Cl)c(C(=O)NOCCO)cc21` [Selumetinib] + C=CCn1c(=O)c2cnc(Nc3ccc(N4CCN(C)CC4)cc3)nc2n1-c1cccc(C(C)(C)O)n1 [AZD1775] (first compound max 10 µM, partner max 1 µM), the Bliss excess in experiment [3] was -0.0025; in experiment [4], -0.0372.
The matching figures for `Cn1cnc2c(F)c(Nc3ccc(Br)cc3Cl)c(C(=O)NOCCO)cc21` [Selumetinib] + CC(C)n1c(=O)n(C)c2cnc3cc(F)c(-c4ccc(OCCCN5CCCCC5)nc4)cc3c21 [AZD1390] (first compound max 10 µM, 7x7, partner max 0.3 µM): -0.0594 and -0.056.
`Cn1cnc2c(F)c(Nc3ccc(Br)cc3Cl)c(C(=O)NOCCO)cc21` [Selumetinib] + CCN(CCO)CCCOc1ccc2c(Nc3cc(CC(=O)Nc4cccc(F)c4)[nH]n3)ncnc2c1 [AZD2811] (first compound max 10 µM, 7x7, partner max 1 µM): the Bliss excess is -0.014 in experiment [3] and -0.0305 in experiment [4].
In the case of `Cn1cnc2c(F)c(Nc3ccc(Br)cc3Cl)c(C(=O)NOCCO)cc21` [Selumetinib] + C[C@@H]1COCCN1C2=NC(=NC(=C2)C3(CC3)[S@](=N)(=O)C)C4=C5C=CNC5=NC=C4 [AZD6738] (first compound max 10 µM, 7x7, partner max 10 µM), the results for the Bliss excess in experiment [3] and in experiment [4] were -0.0785 and -0.0651, respectively.
The matching figures for `Cc1nc(-c2cn3c(n2)-c2ccc(-c4cnn(C(C)(C)C(N)=O)c4)cc2OCC3)n(C(C)C)n1` [Taselisib] + O=C(Nc1ccc2[nH]nc(-c3ccncc3)c2c1)[C@@H]1CCN(CC(=O)N2CCN(c3ccc(-c4ncccn4)cc3)CC2)C1 [SCH772984] (first compound max 10 µM, 7x7, partner max 5 µM): 0.0424 and 0.102.
Take `CC1(C)CCC(CN2CCN(c3ccc(C(=O)NS(=O)(=O)c4ccc(NCC5CCOCC5)c([N+](=O)[O-])c4)c(Oc4cnc5[nH]ccc5c4)c3)CC2)=C(c2ccc(Cl)cc2)C1` [Venetoclax] + CS(=O)(=O)CCNCc1ccc(-c2ccc3ncnc(Nc4ccc(OCc5cccc(F)c5)c(Cl)c4)c3c2)o1 [Lapatinib] (first compound max 1 µM, 7x7, partner max 10 µM): the Bliss excess was -0.0183 in experiment [3] and 0.0123 in experiment [4].
